Assay results as given in patent publication US20200113954A1, “PHARMACEUTICAL AND FOOD COMPOSITION FOR THE TREATMENT OF VAGINAL AND INTESTINAL DYSBIOSIS” (priority 2018, published 2020).

Test system: vulvovaginal candidiasis
Experiment: Third pilot study: open-label, Microbio+ capsules vs topical clotrimazole in women with uncomplicated vulvovaginal candidiasis
Format: in vivo, human
Source text: Study of the Effect of Microbio+ CAPSULES in Woman with Uncomplicated Vulvovaginal Candidiasis.
The primary endpoints are:
reduction in frequency of recurrences
re-equilibrium of the vaginal microflora (through assessment of clinical signs and Lactobacillus grade) in women with uncomplicated vulvovaginal candidiasis.
CLOTRIMAZOLE group: single administration of topical antifungal treatment with no maintenance cycle
Group B: Microbio+ for 15 consecutive days and maintenance cycle of 5 days a month in premenstrual phase for 3 months
Uncomplicated Vulvovaginal candidiasis;
Microscopic diagnosis of vulvovaginal candidiasis through wet mount or vaginal culture;
Not menopausal (defined as 12 or more months since last menstrual cycle at appropriate age);
The total study duration is 12 weeks.
Diagnosis (V0) and start of treatment
Day 15, day 30 and day 90 visits (V1, 2 and 3): At each visit, the patient was asked if they had taken the treatment regularly and if they had experienced any clinical symptoms or adverse events. A clinical examination, microscopic wet mount examination or (if available) cultural examination were performed to establish the effect of the treatment and the lactobacillus grade.
Primary outcomes: • Evaluation of the efficacy of Microbio+ in women with acute VVC: • 1. Clinical cure rate (resolution of symptoms) of VVC at 15, 30 and 90 days; • 2. Microbiological and microscopic cure of VVC (negative vaginal culture or absence of hyphae at wet mount); • 3. Recurrence rate (defined as the presence of symptoms or positive fungal culture or presence of hyphae at wet mount) in 3-month follow-up period.
Secondary outcomes: • Safety and tolerability of Microbio+ in adult women.

[1] = at 15 and 30 days, 20 patients per arm
[2] = within the 3 months of follow-up, 20 patients per arm

**Q.** How did the “clinical and microbiological cure in 1 month” value (1 month, FIG. 6 summary) turn out when `Clc1ccccc1C(c1ccccc1)(c1ccccc1)n1ccnc1` [clotrimazole, Clotrimazole] was run?
**A.** 80%

**Q.** And the “clinical and microbiological cure, number of women” value [1]?
**A.** 16 women

**Q.** And the “clinical and microbiological cure, percent of women” value [1]?
**A.** 80%

**Q.** And the “symptomatic recurrences (symptom recurrence rate), percent of women” value [2]?
**A.** 40%

**Q.** What about the “symptomatic recurrences, number of women” value [2] of the same compound?
**A.** 8 women
